Test results published in PMC11724075, “Small-molecule-induced ERBB4 activation to treat heart failure” (Nature Communications, 2025).
Values joined by “and” are separate entries in the source; they are usually repeats but may differ in a detail not shown here. Identical values can stand only once.

How the values were obtained:
[1] = system: mouse model of AngII-induced myocardial fibrosis; experiment: AngII-induced myocardial fibrosis mouse model, 1 week, heart mRNA by RT-qPCR; type: in vivo
Description: Four weeks after implantation, cardiac ultrasound was performed, mice were euthanized, and hearts were collected. A similar set-up was used for the 1-week study (Alzet, model 1007D) in male mice (n = 9-10 mice in every group).
RNA was extracted using Nucleospin RNA XS (Macherey-Nagel, 740902.50) according to the manufacturer’s instructions. For cDNA synthesis, total RNA was added to a mixture containing buffer with random hexamers and reverse transcriptase enzyme (TaqMan reverse transcription reagents, Applied biosystems, N8080234) after which samples were incubated for 10 min at 25 °C, 30 min at 48 °C, and 5 min at 95 °C. RT-qPCR was performed on QuantStudio 3 Real-time PCR system (Applied Biosystems) using Taqman Universal PCR Master Mix (Applied Biosystems, 4304437) and Taqman primers according to the manufacturer’s instructions. Settings were as follows: […] followed by 10 min at 95 °C, 40 cycles (45 cycles for ERBB4) of denaturation at 95 °C for 15 s, and 1 min at 60 °C. All reactions were run in duplicate, and all data were normalized against housekeeping genes glyceraldehyde-3-phosphate dehydrogenase (GAPDH), beta-actin (ACTB), or phosphoglycerate kinase 1 (PGK1). Expression levels were calculated using the comparative cycle method and expressed as fold change (FC) to appropriate controls. The following TaqMan primers were used (Thermo Fisher Scientific): GAPDH (Hs02758991_g1, Mm99999915_g1 and Rn01775763_g1), PGK1 (Hs99999906_m1), ID2 (Hs04187239_m1), BMPR1B (Hs01010965_m1), CACNA2D4 (Hs00297782_m1), DUSP2 (Hs00358879_m1), NR4A1 (Hs00374226_m1), SGK1 (Hs00178612_m1), COL1A1 (Mm00801666_g1), COL3A1 (Hs00943809_m1 and Mm00802305_g1), ERBB4 (Hs00955525_m1 and Rn00572447_m1), ACTB (Mm02619580_g1) and ANP (Mm01255747_g1).

HCFs = experiment: Bulk RNA sequencing and GSEA of human cardiac fibroblasts; type: cell-based; details: EF-1 32 µM, 16 h, log2-fold change >0, P adj <0.05
Description: iAMs were seeded at a density of 6 ×10^6 cells/mL in differentiation medium in 75-cm^2 cell culture flasks (Greiner Bio-One, 658175) and incubated for 9 days (d0 = day of seeding). HCF were seeded at a density of 3 × 10^6 cells/mL in fibroblast medium in 75-cm^2 cell culture flasks. […] Next, cells were lysed using 350 µL buffer RLT (Qiagen) supplemented with β-mercaptoethanol (100:1; Merck, 444203). Total RNA was isolated using the RNeasy Micro Kit (Qiagen, 74104) according to the manufacturer’s protocol, with an extra step of DNase digestion. The concentration and quality of RNA were determined using a Qubit fluorometer (Thermo Fisher Scientific) and 2100 Agilent BioAnalyzer (Agilent Technologies), respectively. Samples with an RNA integrity number >7 were used for library preparation. Sequencing libraries were prepared by Genewiz/Azenta (Leipzig) on cDNA prepared from polyadenylated mRNA. Libraries were sequenced using a NovaSeq 6000 (Illumina) with a read length of 2 ×150 bp.
Gene expression was quantified at the transcript level using Salmon (v1.10.0)[60], with the validatMappings and -gcBias parameters switched on, to the Rnor_6.0 or GRCh38 transcriptome. […] Functional enrichment of DEGs was determined using a hypergeometric test against the Gene Ontology database by using the ClueGO (v2.5.7)[64] module of Cytoscape (v3.9.1)[65] with Benjamini–Hochberg adjusted (FDR) P < 0.05. […]

iAMs = experiment: TUNEL assay in H2O2-treated iAMs; type: cell-based, rat; design: In vitro TUNEL assay: unit not given here
Description: To assess apoptosis, a TUNEL assay was performed using the In Situ Cell Death Detection Kit, Fluorescein (Merck, 11684795910) according to the manufacturer’s instructions. After the 4-h incubation, the cells were fixed with 4% paraformaldehyde for 15 min at room temperature, followed by permeabilization with 0.1% Triton X-100 in 0.1% sodium citrate for 2 min on ice. Cells were then incubated with the TUNEL reaction mixture in a humidified chamber at 37 °C for 1 h in the dark. After washing with PBS, the samples were analyzed using fluorescence microscopy to detect apoptotic cells. […]
1 on TUNEL staining (red).
positive cells (n=7 biological replicates in Veh group, n=9 biological replicates for H2O2/Veh group, n=11 […]

[2] = AngII/EF-1, male wild type mice, EF-1 2 mg/kg/day, single animals, 2 mg/kg/day

## O=C(NC1CC1)C(Sc1nc2ccccc2c(=O)n1C1CCCC1)c1ccccc1 (stereo not shown) [EF-1]
other
  half-life with human liver microsomes: > 6 h
[1]; [2]
  Col1a1 mRNA in heart, normalized FC compared to Ctrl: 0.89 and 1.45 and 5.23 and 1.1 and 0.7 and 1.4 and 1.83 and 0.45
  Col3a1 mRNA in heart, normalized FC compared to Ctrl: 0.3868 and 1.25 and 2.15 and 0.45 and 0.1877 and 2.4002 and 0.7979 and 0.9965
  Nppa mRNA in heart, normalized FC compared to Ctrl: 0.84 and 6.51 and 3.53 and 3.93 and 1.08 and 3.77 and 5.6 and 2.74 and 3.12
[1]; male wild type mice
  effect on AngII-induced Col1a1 and Col3a1 mRNA expression (in words): significantly reduced
  effect on atrial natriuretic peptide (Nppa) expression (in words): significantly decreased
HCFs
  number of significantly downregulated genes compared to Veh: 507
  number of significantly upregulated genes compared to Veh: 336
iAMs; 100 µM H2O2
  number of TUNEL-positive (apoptotic) cells (in words): significantly reduced this number
iAMs; H2O2/EF-1, individual replicates
  In vitro TUNEL assay: 23.25 and 37.594 and 36.981 and 17.145 and 24.708 and 40.03 and 14.87 and 23.901 and 20.679 and 24.2124 and 24.656
